# From patent US20150307491A1, “SUBSTITUTED PYRIDOPYRAZINES AS SYK INHIBITORS” (HUTCHISON MEDIPHARMA LIMITED, priority 2012, published 2015)
# How the values were obtained:
# [1] = target: T1, Recombinant human KDR (VEGFR-2) (Homo sapiens, UniProt P35968); experiment: Transcreener kinase assay of VEGFR-2 (KDR); type: biochemical; conditions: Poly E4Y substrate
# T1 construct: purchased Invitrogen PV3660
# Description: Transcreener kinase assay of VEGFR-2 (KDR)
# 1. Solution preparation • 1) Transcreenen™ KINASE Assy kit: Bellbrook Labs, 3003-10 K; • 2) Recombinant human KDR: Invitrogen, PV3660; • 3) Poly E4Y (substrate): Sigma, P0275; 5 mg/mL, dissolved in MilliQ water; • 4) Assay buffer: 67 mM HEPES, 0.013% Triton X-100, 27 mM MgCl2, 0.67 mM MnCl2 1.25 mM DTT, PH 7.4; • 5) 10 mM ATP: Invitrogen, PV3227; • 6) 500 mM EDTA: Invitrogen, 15575-038; • 7) 96 well black Greiner plate: Greiner, 675076.
# 2. Prepare solution • 1) Dilute the compound to 5 folds of final concentrations, keeping the DMSO concentration at 5%. The final concentrations are 1, 0.33, 0.11, 0.037, 0.012, 0.004, 0.0014, 0.0005 μM; and the final concentration of DMSO is 1%. • 2) Prepare Enzyme/Substrate stock, Recombinant human KDR and Poly E4Y are both diluted in assay buffer. The final concentration is KDR (0.3 ng/μL), Poly E4Y (62.5 ng/μL). The mixture is keeping on ice surface before use; • 3) Prepare ATP Diluents, 10 mM ATP is diluted in assay buffer, the final concentration is 25 μM; • 4) Prepare ADP Diluents: diluted ADP (500 μM) in assay buffer, the final concentration is 25 μM; • 5) Prepare ATP standard curve stock as following:
# 3. Enzymatic reaction • 1) Add 5 μL of compound or control. (positive control, 5 μL of 5% DMSO; negative control, 5 μL of 500 mM EDTA); • 2) Add 10 μL of Enzyme/Substrate stock; • 3) Add 10 μL of ATP Diluents to begin the enzyme reaction and mix on plate shaker; • 4) Add 5 μL 5% DMSO, 10 μL of assay buffer and 10 μL of ATP standard curve stock into standard curve wells; • 5) Incubate at 28° C. for 45 min, keeping plate in gently shaking.
# 4. Stop reaction and detect ADP • 1) Prepare Detection Mix: diluted ADP Alexa633 tracer (1:100), ADP antibody (1:158), and stop & detect buffer (1:10) by MilliQ water; • 2) Prepare Tracer Only control: diluted ADP Alexa633 tracer (1:100) and stop & detect buffer (1:10) by MilliQ water; • 3) Prepare No Tracer control: diluted stop & detect buffer (1:10) by MilliQ water; • 4) Add 25 μL of detection mix, Tracer Only control and No Tracer control into corresponding wells, respectively; • 5) Incubate at 28° C. for 1 h, keeping plate in gently shaking; • 6) Measure florescence polarization (FP) on TECAN F500. Excitation wavelength: 610 nm, Emission wavelength: 670 nm.
# Wherein: • 1) Compound well [ADP] represents the ADP concentration of compound well. • 2) Positive control well [ADP] represents the ADP concentration of 5% DMSO well • 3) Conversion of mP value to ADP concentration based on the formula which determined by standard curve.
# IC50: calculated using XL-Fit 2.0 software.
# [2] = system: RBL-2H3 cells; experiment: IgE-induced Beta-hexosaminidase secretion in RBL-2H3 cells; type: cell-based; conditions: Rattus norvegicus; RBL-2H3 cells sensitized with SPE-7, stimulated with DNP-BSA
# Description: For the determination of IgE-induced Beta-hexosaminidase secretion, RBL-2H3 cells (SIBS) are seeded in 96 well plates at 4×10^4 cells per well and incubated in MEM media with 15% FBS and Glutamine ([…]) for 4 hours and sensitized with 0.5 ug/ml of SPE-7 overnight. Cells are washed 3 times with Tyrode's buffer and incubated in the presence or absence of various concentrations of the testing compound for 20 min at 37° C., 5% CO2. Cells are stimulated by adding 10 μL of DNP-BSA solution (150 ng/mL) to each well and incubating for 45 minutes at 37° C., 5% CO2. Then, 45 μL of the supernatant is taken and incubated with 100 μL of 1 mM 4-Nitrophenyl N-acetyl-β-D-glucosaminide (Sigma, Cat. No. N9376), which is diluted in 0.05 M citrate buffer (pH 4.5), for 1.5 hr at 37° C. The reactions are quenched by adding 185 μL of 0.05 M sodium carbonate buffer (pH 10.0). Plates are read at 405 nm on Multiskan (MK 3).
# [3] = target: T2, Flt3 kinase (Homo sapiens, UniProt P36888); experiment: Z-lyte kinase assay of Flt-3; type: biochemical; conditions: Z-LYTE Tyr 2 peptide; final concentrations 3 to 0.0014 μM
# T2 construct: purchased Invitrogen PV3182
# T2 sequence (P36888 564-993 limits assumed): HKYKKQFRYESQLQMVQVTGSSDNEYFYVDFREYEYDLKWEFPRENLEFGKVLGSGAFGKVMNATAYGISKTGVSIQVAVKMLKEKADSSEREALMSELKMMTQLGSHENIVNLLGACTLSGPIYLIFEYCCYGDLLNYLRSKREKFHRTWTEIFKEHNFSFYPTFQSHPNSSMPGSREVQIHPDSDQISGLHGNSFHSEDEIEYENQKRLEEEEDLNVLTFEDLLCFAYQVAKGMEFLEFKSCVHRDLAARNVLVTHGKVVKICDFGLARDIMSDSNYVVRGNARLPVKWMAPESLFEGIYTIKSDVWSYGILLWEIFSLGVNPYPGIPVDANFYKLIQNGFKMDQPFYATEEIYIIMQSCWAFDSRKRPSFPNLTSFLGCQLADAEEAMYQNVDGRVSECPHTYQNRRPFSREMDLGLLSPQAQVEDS
# Description: Z-lyte kinase assay of Flt-3:
# Dilute 5× Kinase Buffer to 1,33× with ddH2O
# Serially dilute the test compounds to 4 folds of the concentrations desired, keeping the DMSO concentration at 8%. The final concentrations were 3, 1, 0.33, 0.11, 0.037, 0.012, 0.004, 0.0014 μM, and the final concentration of DMSO was 2%,
# Prepare Kinase/Peptide Mixture by diluting the kinase to 0.12 μg/mL and the Z-LYTE™ Tyr 2 peptide to 4 μM in 1.33× Kinase Buffer. Mix gently by pipetting. 4) Phcspho-peptide Solution (PP solution)
# Add 0.4 μL of Z-LYTE™ Tyr 2 Phospho-peptide to 99.6 μL of 1.33× Kinase Buffer.
# Prepare ATP Solution by diluting the 10 mM of ATP in 1.33× Kinase Buffer to 1.88 mM.
# Dilute Development Reagent A with Development Buffer as 1:64.
# 1) Kinase reaction (10 μL of Volume) • a. Add 2.5 μL of 4× test Cpds to each well except C1, C2, C3 wells
# Add 2.5 μL of 8% DMSO to C1, C2, C3 wells • b. Put the 384-plate on ice • c. Add 5 μL of P/K mixture to each test Cpd wells and C1, C2 wells • d. Add 5 μL of PP Solution to C3 well • e. Add 2.5 μL of 1,33× kinase buffer to C1 and C3 wells • f. Add 2.5 μL of 4×ATP Solution to each test Cpd wells and C2 well, respectively.
# Shake the plate for 30 Sec and centrifuge (1500 rpm, 1 min) • g. Seal the plate to protect from the light and incubate the plate for 1 hour at RT (25-30° C.) 2) Development reaction • a. Add 5 μL of the Development solution to all wells • b. Shake the plate for 30 Sec and centrifuge (1500 rpm, 1 min) • c. Seal the plate to protect from the light and incubate the plate for 1 hour at RT (25-30° C.) 3) Stop and read • a. Add 5 μL of the Stop reagent to all wells • b. Shake the plate for 30 Sec and centrifuge (1500 rpm, 1 min) • c. Measure the value of Coumarin (Ex400 nm, Em445 nm) and fluorescein (Ex400 nm, Em520 nm), respectively. 4. Data analysis
# Emission Ratio (ER) Coumarin Emission (445 nm)/Fluorescein Emission (520 nm)
# inhibition ratio (IR)=1−% Photest Cpd/% PhoC2%
# IC50 Value: determined with add-in software for Microsoft Excel, XLfit™ (version 2.0) from ID Business Solutions (Guildford: UK)
# T1 sequence (P35968 789-1356 limits assumed): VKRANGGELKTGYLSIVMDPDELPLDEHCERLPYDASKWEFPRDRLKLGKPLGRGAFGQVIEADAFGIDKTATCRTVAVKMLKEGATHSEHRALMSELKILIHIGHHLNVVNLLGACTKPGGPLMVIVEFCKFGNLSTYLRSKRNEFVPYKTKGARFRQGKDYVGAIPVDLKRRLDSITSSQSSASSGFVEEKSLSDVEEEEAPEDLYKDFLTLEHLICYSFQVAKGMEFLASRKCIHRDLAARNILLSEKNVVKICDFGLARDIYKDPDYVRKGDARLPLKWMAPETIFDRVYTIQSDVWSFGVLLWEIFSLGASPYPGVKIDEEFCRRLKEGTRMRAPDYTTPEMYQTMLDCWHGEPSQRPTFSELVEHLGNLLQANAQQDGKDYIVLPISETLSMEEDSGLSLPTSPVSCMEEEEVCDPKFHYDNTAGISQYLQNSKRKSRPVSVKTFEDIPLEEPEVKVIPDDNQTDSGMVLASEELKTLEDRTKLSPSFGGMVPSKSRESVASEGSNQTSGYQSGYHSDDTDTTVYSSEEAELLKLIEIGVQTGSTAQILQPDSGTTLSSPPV
Structure (SMILES),IC50 [1] [nM],IC50 [2] [nM],IC50 [3] [nM]
CS(=O)(=O)N1CCN(c2ccc(-c3cc4nccnc4c(OC[C@@H]4CN(S(C)(=O)=O)CCO4)n3)cc2)CC1 [Compound 26],1600,100 to 1000,
CC(=O)N1CCC(c2ccc(-c3cc4nccnc4c(OC[C@@H]4CN(S(C)(=O)=O)CCO4)n3)cc2)CC1 [Compound 33],1330,1 to 100,
COc1ccc(-c2cc3nccnc3c(OC[C@@H]3CN(S(C)(=O)=O)CCO3)n2)cc1OC [Compound 43],> 3000,1 to 100,1600
CN(C)c1ccc(-c2cc3nccnc3c(OC[C@@H]3CN(S(C)(=O)=O)CCO3)n2)cc1F [Compound 53],2960,1 to 100,
"CS(=O)(=O)N1CCC(c2ccc(-c3cc4nccnc4c(OC[C@@H]4CN(S(C)(=O)=O)CCO4)n3)cc2)CC1 [Compound 57, (S)-4-(methylsulfonyl)-2-((7-(4-(1-(methylsulfonyl)piperidin-4-yl)phenyl)pyrido[4,3,-b]pyrazin-5-yloxy)methyl)morpholine]",1560,1 to 100,1640
CN(C)c1ccc(-c2cc3nccnc3c(OC[C@@H]3CN(S(C)(=O)=O)CCO3)n2)cc1Cl [Compound 108],> 3000,1 to 100,2420
